Measured values reported in patent US4816486A, “Amide derivatives and 5-lypoxygenase inhibitors containing the same” (Terumo Corporation, priority 1985, dated 1989).

Molecular target: T1, 5-lypoxygenase (Mus musculus, UniProt P48999)
T1 construct: The supernatant was used as the 5-lypoxygenase enzyme solution; endogenous in cells; host or cells: mouse mastocytoma P815 cells (supernatant of sonicated cells)
T1 sequence (P48999 1-674): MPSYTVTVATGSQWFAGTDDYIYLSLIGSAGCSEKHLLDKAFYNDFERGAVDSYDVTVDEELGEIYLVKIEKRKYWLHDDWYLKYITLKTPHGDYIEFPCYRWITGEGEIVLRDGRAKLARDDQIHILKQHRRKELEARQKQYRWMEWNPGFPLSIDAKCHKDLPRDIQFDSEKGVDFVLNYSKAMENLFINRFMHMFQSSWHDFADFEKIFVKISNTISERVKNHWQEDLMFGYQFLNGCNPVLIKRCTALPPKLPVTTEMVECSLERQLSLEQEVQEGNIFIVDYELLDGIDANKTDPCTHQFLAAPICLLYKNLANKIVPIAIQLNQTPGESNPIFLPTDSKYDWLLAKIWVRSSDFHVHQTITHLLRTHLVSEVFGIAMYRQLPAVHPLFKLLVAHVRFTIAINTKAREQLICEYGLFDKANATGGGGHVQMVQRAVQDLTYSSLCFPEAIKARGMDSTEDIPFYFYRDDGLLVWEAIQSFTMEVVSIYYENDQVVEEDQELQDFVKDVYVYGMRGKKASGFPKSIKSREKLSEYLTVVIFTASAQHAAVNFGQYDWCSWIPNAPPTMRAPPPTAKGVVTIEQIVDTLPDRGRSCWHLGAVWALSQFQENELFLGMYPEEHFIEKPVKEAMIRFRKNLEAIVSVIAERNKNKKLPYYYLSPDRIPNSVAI
Assay: 5-Lypoxygenase-inhibiting activity (formation of 5-HETE and LTB4 from radiolabelled arachidonic acid, supernatant of sonicated mouse mastocytoma P815 cells)
Format: biochemical
Details: inhibition of formation of 5-HETE and LTB4; 37° C., 5 min; pH 7.4 phosphate buffer; P815 cell supernatant; indomethacine present; read-out: 50% inhibitory concentration IC50
Description: Mouse mastocytoma cells, strain P815 were diluted in a medium containing 90% of the Eagle basal medium (manufactured by Gibco Laboratories) to a cencentration of 5×10^4 cells/ml. The diluted liquor was subjected to shake culture in air at 37° C. for 48 hours. The culture liquor was cooled with ice and centrifuged to collect the cells. The cells were re-suspended in a phosphate buffer solution at pH 7.4 to a concentration of 2×10^7 cells/ml. The suspension was treated in an ultrasonic cell fragmenting machine and then centrifuged at […] for 10 min. The supernatant was used as the 5-lypoxygenase enzyme solution. To a test tube in which 20 μl of radiolabelled arachidonic acid (10 μ curies/ml), indomethacine ([…]) and an amide derivative of the invention to be tested were placed 0.45 ml of phosphate buffer solution, 0.45 ml of the above-prepared enzyme solution and 0.1 ml of 8 mM CaCl2 (calcium chloride) solution. The mixture was reacted at 37° C. for 5 min. […] Determination of the inhibitory activity was made by collecting the portion corresponding to 5-HBTE (5-(s)-hydroxy-6,8,11,14-eicosatetraenic acid) and LTB4 (leucotriene B4), which were 5-lypoxygenase products as detected with a radio-thin layer scanner (Dunnschicht-scanner II LB 2723 manufactured by Berthold), and measuring the radioactivity by means of a scintillation counter. […]

Row | IC50 [µM] | SMILES
1 | 4 | COc1cc(/C=C/C(=O)Nc2c(Br)cc(Br)cc2CN(C)C2CCCCC2)ccc1O [Example 1, N-cyclohexyl-N-methyl-(2-(3-(3-methoxy-4-hydroxyphenyl)-2-propenoylamino)-3,5-dibromobenzyl)amine]
2 | 0.3 | COc1cc(/C=C/C=C/C(=O)Nc2c(Br)cc(Br)cc2CN(C)C2CCCCC2)ccc1O [Example 2, N-cyclohexyl-N-methyl-(2-(5-(3-methoxy-4-hydroxyphenyl)2,4-pentadienoylamino)-3,5-dibromobenzyl)amine]
